# Reference: patent publication US20240425483A1, “INDOLINES AS PROTAC COMPOUNDS” (NeoPhore Limited, priority 2021, published 2024)
# Target: T1, PMS2 protein (Homo sapiens, UniProt P54278)
# T1 construct: host or cells: SW620 human colorectal carcinoma cells
# T1 sequence (P54278 1-862): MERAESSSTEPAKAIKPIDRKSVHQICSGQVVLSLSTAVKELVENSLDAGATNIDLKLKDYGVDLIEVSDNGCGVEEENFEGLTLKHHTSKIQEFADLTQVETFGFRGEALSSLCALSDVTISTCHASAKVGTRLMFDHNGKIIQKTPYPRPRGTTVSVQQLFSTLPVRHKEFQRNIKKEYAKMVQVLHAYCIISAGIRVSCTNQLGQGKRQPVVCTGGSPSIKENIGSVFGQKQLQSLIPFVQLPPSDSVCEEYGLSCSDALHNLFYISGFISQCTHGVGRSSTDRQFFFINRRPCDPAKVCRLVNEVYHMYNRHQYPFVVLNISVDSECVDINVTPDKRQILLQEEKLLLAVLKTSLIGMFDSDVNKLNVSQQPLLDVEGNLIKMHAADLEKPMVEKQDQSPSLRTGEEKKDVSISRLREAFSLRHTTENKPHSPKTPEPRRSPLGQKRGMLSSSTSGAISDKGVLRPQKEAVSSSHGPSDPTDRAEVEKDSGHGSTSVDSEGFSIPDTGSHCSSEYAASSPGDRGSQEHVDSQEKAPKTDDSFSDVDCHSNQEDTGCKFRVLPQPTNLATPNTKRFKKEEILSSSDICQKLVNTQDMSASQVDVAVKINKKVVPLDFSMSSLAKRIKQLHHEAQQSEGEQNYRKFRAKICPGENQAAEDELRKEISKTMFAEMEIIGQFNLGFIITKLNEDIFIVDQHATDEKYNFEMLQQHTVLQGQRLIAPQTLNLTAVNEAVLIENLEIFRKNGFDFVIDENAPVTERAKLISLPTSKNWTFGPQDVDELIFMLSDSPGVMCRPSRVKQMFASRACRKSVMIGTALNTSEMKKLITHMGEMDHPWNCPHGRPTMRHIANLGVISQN
# Test: PROTAC screening in SW620 human colorectal carcinoma cells, PMS2 protein level by JESS Western blot
# Format: cell-based
# Conditions: SW-620, 24 h, 1 uM compound, normalised to actin and DMSO control, Table A1
# Procedure: PROTAC Screening Protocol Using SW620 Human Colorectal Carcinoma Cells
# SVW620 cells (ATCC/[…]) were cultured in T75 Falcon flasks in culture media (F12/DMEM 1:1 media, 10% FCS, +L-G supplement). Cells were split twice a week, for a maximum of 6 weeks. Media was aspirated, and cells washed with 10 mL of sterile PBS. PBS was aspirated, and cells incubated with 1.5 mL TrypLE for up to 5 minutes at 37° C., 5% CO2. Once cells had detached, TrypLE was neutralised with 10 mL culture media and cells mixed 1:1 with Trypan blue and quantified using a Luna cell counter. Cells were then seeded into fresh T75 flasks with 1×10^6 cells and 10 mL culture media.
# SW620 cells, cultured and counted as above, were used to seed 12 well plates at a density of 1.5×10^5 cells/well and incubated overnight at 37° C., 5% CO2. Test compounds were solubilized in DMSO to a stock concentration of 10 mM and serially diluted in DMSO and media to their test concentration; the final concentration of DMSO was 0.1% (v/v). Each concentration was tested in triplicate. SW620 cells were incubated with test compound for 24 hours at 37° C., 5% CO2. Media was aspirated from each well, and each well washed with 1 mL ice cold PBS. PBS was then aspirated, and 50 μL of cold lysis buffer (RIPA buffer supplemented with 1× protease inhibitors, Benzonase, MgCl) was added to each well; plates were then incubated on ice for 5 minutes. Cells were scraped using a pipette tip before being transferred to a fresh Eppendorf. Samples were spun at maximum speed in a benchtop centrifuge for 5 minutes at 4° C. and supernatant was then transferred to fresh tubes. Samples were stored at −80° C. until analysis.
# Bicinchonininic acid (BCA) protein assay standards (2-0.125 mg/mL BSA) were prepared in advance. 6 μL of each standard was pipetted in duplicate into rows A and B of a 384-well assay plate. Test samples were diluted in lysis buffer (1:3-1:10) in a 384-well plate in duplicate. BCA Reagents were combined 50:1, Part A:Part B and 50 μL added to each well. Plates were incubated for 30 min at 37° C. in a plate incubator and read using a BCA protein 384 protocol on an EnSpire plate reader. Protein concentrations were calculated from a standard curve.
# JESS Western Blot Protocol
# Protein lysates were prepared using Protein Simple EZ standard pack reagents: 40 μL distilled H2O was added to a DTT tube (clear) and treated with 20 μL 10× sample buffer and 20 μL DTT to 5×MM tube (pink). 20 μL dH2O was added to biotinylated ladder tube (green).
# Test samples were prepared by dilution to the required concentration (0.1 mg/mL) in 0.1× sample buffer. 1.25 μL 5× fluorescent master mix from the EZ standard pack was added to 5 μL sample for each lane to be loaded (e.g. 2.5 μL+10 μL if loading same sample into 2 wells). Samples were vortexed, briefly spun down and heated at 95° C. for 5 min in a PCR machine then vortexed again and briefly spun down before loading onto JESS cassettes (catalogue No: SM-W004) according to manufacturer's instructions (https://www.proteinsimple.com/technical_library.html?product=simplewestern&def_list=list). Protein expression was determined by the peak area of the target protein signal. Peak area of the target protein was normalised to peak area of the loading control (actin) and to DMSO control.
row,remaining activity at 1 µM [%],Structure (SMILES)
1,10 to 25,"Cc1c(O)cc(O)c(C(=O)N2Cc3ccc(CN4CCC(C(=O)N5CCN(c6ccc7c(c6)CN(C6CCC(=O)NC6=O)C7=O)CC5)CC4)cc3C2)c1OCC1CCCCC1 (centres unmarked) [Example 21, 3-(5-(4-(1-((2-(2-(cyclohexylmethoxy)-4,6-dihydroxy-3-methylbenzoyl)isoindolin-5-yl)methyl)piperidine-4-carbonyl)piperazin-1-yl)-1-oxoisoindolin-2-yl)piperidine-2,6-dione]"
2,25 to 50,"Cc1c(O)cc(O)c(C(=O)N2Cc3ccc(C(=O)N4CCC(OCCOCCOCCN5CCN(c6cc7c(cc6F)C(=O)N(C6CCC(=O)NC6=O)C7=O)CC5)CC4)cc3C2)c1OCc1ccccc1 (centres unmarked) [Example 18, 5-(4-(2-(2-(2-((1-(2-(2-(Benzyloxy)-4,6-dihydroxy-3-methylbenzoyl)isoindoline-5-carbonyl)piperidin-4-yl)oxy)ethoxy)ethoxy)ethyl)piperazin-1-yl)-2-(2,6-dioxopiperidin-3-yl)-6-fluoroisoindoline-1,3-dione]"
3,25 to 50,"Cc1c(O)cc(O)c(C(=O)N2Cc3ccc(CN4CCN(CCOCCOCCNc5cccc6c5C(=O)N(C5CCC(=O)NC5=O)C6=O)CC4)cc3C2)c1OCc1ccccc1 (centres unmarked) [Example 2, 4-((2-(2-(2-(4-((2-(2-(Benzyloxy)-4,6-dihydroxy-3-methylbenzoyl)isoindolin-5-yl)methyl)piperazin-1-yl)ethoxy)ethoxy)ethyl)amino)-2-(2,6-dioxopiperidin-3-yl)isoindoline-1,3-dione]"
4,25 to 50,"Cc1c(O)cc(O)c(C(=O)N2Cc3ccc(CN4CCN(CCOCCOCCOCCNc5ccc6c(c5)CN(C5CCC(=O)NC5=O)C6=O)CC4)cc3C2)c1OCc1ccccc1 (centres unmarked) [Example 16, 3-(5-((2-(2-(2-(2-(4-((2-(2-(Benzyloxy)-4,6-dihydroxy-3-methylbenzoyl)isoindolin-5-yl)methyl)piperazin-1-yl)ethoxy)ethoxy)ethoxy)ethyl)amino)-1-oxoisoindolin-2-yl)piperidine-2,6-dione]"
5,10 to 25,"Cc1c(O)cc(O)c(C(=O)N2Cc3ccc(CN4CCN(CCOCCOCCOCCOCCOCCOCCNc5cccc6c5C(=O)N(C5CCC(=O)NC5=O)C6=O)CC4)cc3C2)c1OCC1CCCCC1 (centres unmarked) [Example 8, 4-[2-[2-[2-[2-[2-[2-[2-[4-[[2-[2-(Cyclohexylmethoxy)-4,6-dihydroxy-3-methyl-benzoyl]isoindolin-5-yl]methyl]piperazin-1-yl]ethoxy]ethoxy]ethoxy]ethoxy]ethoxy]ethoxy]ethylamino]-2-(2,6-dioxo-3-piperidyl)isoindoline-1,3-dione]"
6,10 to 25,"Cc1c(O)cc(O)c(C(=O)N2Cc3ccc(C(=O)N4CCC(CN5CCN(c6ccc7c(c6)CN(C6CCC(=O)NC6=O)C7=O)CC5)CC4)cc3C2)c1OCc1ccccc1 (centres unmarked) [Example 22, 3-(5-(4-((1-(2-(2-(Benzyloxy)-4,6-dihydroxy-3-methylbenzoyl)isoindoline-5-carbonyl)piperidin-4-yl)methyl)piperazin-1-yl)-1-oxoisoindolin-2-yl)piperidine-2,6-dione]"
7,< 10,"Cc1ncsc1-c1ccc(CNC(=O)[C@@H]2C[C@@H](O)CN2C(=O)[C@@H](NC(=O)CCCCCCCCC(=O)N2CCN(Cc3ccc4c(c3)CN(C(=O)c3c(O)cc(O)c(C)c3OCC3CCCCC3)C4)CC2)C(C)(C)C)cc1 [Example 29, (2S,4R)-1-[(2S)-2-[[10-[4-[[2-[2-(Cyclohexylmethoxy)-4,6-dihydroxy-3-methyl-benzoyl]isoindolin-5-yl]methyl]piperazin-1-yl]-10-oxo-decanoyl]amino]-3,3-dimethyl-butanoyl]-4-hydroxy-N-[[4-(4-methylthiazol-5-yl)phenyl]methyl]pyrrolidine-2-carboxamide]"
8,10 to 25,"Cc1c(O)cc(O)c(C(=O)N2Cc3ccc(CN4CCC(CC(=O)N5CCN(c6ccc7c(c6)CN(C6CCC(=O)NC6=O)C7=O)CC5)CC4)cc3C2)c1OCC1CCCCC1 (centres unmarked) [Example 20, 3-(5-(4-(2-(1-((2-(2-(Cyclohexylmethoxy)-4,6-dihydroxy-3-methylbenzoyl)isoindolin-5-yl)methyl)piperidin-4-yl)acetyl)piperazin-1-yl)-1-oxoisoindolin-2-yl)piperidine-2,6-dione]"
9,< 10,"Cc1ncsc1-c1ccc(CNC(=O)[C@@H]2C[C@@H](O)CN2C(=O)[C@@H](NC(=O)CCCCCCC(=O)N2CCN(Cc3ccc4c(c3)CN(C(=O)c3c(O)cc(O)c(C)c3OCc3ccccc3)C4)CC2)C(C)(C)C)cc1 [Example 25, (2S,4R)-1-[(2S)-2-[[8-[4-[[2-(2-Benzyloxy-4,6-dihydroxy-3-methyl-benzoyl)isoindolin-5-yl]methyl]piperazin-1-yl]-8-oxo-octanoyl]amino]-3,3-dimethyl-butanoyl]-4-hydroxy-N-[[4-(4-methylthiazol-5-yl)phenyl]methyl]pyrrolidine-2-carboxamide]"
10,10 to 25,"Cc1c(O)cc(O)c(C(=O)N2Cc3ccc(CN4CCN(CCOCCOCCOCCNc5cccc6c5C(=O)N(C5CCC(=O)NC5=O)C6=O)CC4)cc3C2)c1OCC1CCCCC1 (centres unmarked) [Example 5, 4-[2-[2-[2-[2-[4-[[2-[2-(Cyclohexylmethoxy)-4,6-dihydroxy-3-methyl-benzoyl]isoindolin-5-yl]methyl]piperazin-1-yl]ethoxy]ethoxy]ethoxy]ethylamino]-2-(2,6-dioxo-3-piperidyl)isoindoline-1,3-dione]"
11,10 to 25,"Cc1c(O)cc(O)c(C(=O)N2Cc3ccc(CN4CCN(CCOCCOCCOCCOCCOCCOc5cccc6c5C(=O)N(C5CCC(=O)NC5=O)C6=O)CC4)cc3C2)c1OCc1ccccc1 (centres unmarked) [Example 12, 4-((17-(4-((2-(2-(Benzyloxy)-4,6-dihydroxy-3-methylbenzoyl)isoindolin-5-yl)methyl)piperazin-1-yl)-3,6,9,12,15-pentaoxaheptadecyl)oxy)-2-(2,6-dioxopiperidin-3-yl)isoindoline-1,3-dione]"
12,10 to 25,"Cc1c(O)cc(O)c(C(=O)N2Cc3ccc(CN4CCN(CCOCCOCCOCCNc5cccc6c5CN(C5CCC(=O)NC5=O)C6=O)CC4)cc3C2)c1OCC1CCCCC1 (centres unmarked) [Example 17, 3-(4-((2-(2-(2-(2-(4-((2-(2-(Cyclohexylmethoxy)-4,6-dihydroxy-3-methylbenzoyl)isoindolin-5-yl)methyl)piperazin-1-yl)ethoxy)ethoxy)ethoxy)ethyl)amino)-1-oxoisoindolin-2-yl)piperidine-2,6-dione]"

# Same assay, conditions: SW-620, 24 h, 1 uM compound, upon further testing, Table A2
row,remaining activity at 1 µM [%],Structure (SMILES)
1,10 to 25,"Cc1c(O)cc(O)c(C(=O)N2Cc3ccc(CN4CCN(CCOCCOCCNc5cccc6c5C(=O)N(C5CCC(=O)NC5=O)C6=O)CC4)cc3C2)c1OCc1ccccc1 (centres unmarked) [Example 2, 4-((2-(2-(2-(4-((2-(2-(Benzyloxy)-4,6-dihydroxy-3-methylbenzoyl)isoindolin-5-yl)methyl)piperazin-1-yl)ethoxy)ethoxy)ethyl)amino)-2-(2,6-dioxopiperidin-3-yl)isoindoline-1,3-dione]"
2,< 10,"Cc1c(O)cc(O)c(C(=O)N2Cc3ccc(CN4CCN(CCOCCOCCOCCOCCOCCOc5cccc6c5C(=O)N(C5CCC(=O)NC5=O)C6=O)CC4)cc3C2)c1OCc1ccccc1 (centres unmarked) [Example 12, 4-((17-(4-((2-(2-(Benzyloxy)-4,6-dihydroxy-3-methylbenzoyl)isoindolin-5-yl)methyl)piperazin-1-yl)-3,6,9,12,15-pentaoxaheptadecyl)oxy)-2-(2,6-dioxopiperidin-3-yl)isoindoline-1,3-dione]"
